The assay has as its system P388 leukemia ip, CD2F1 mice, survival T/C. As to the kind of experiment: NCI In Vivo Anticancer Drug Screen. Data for tumor model P388 Leukemia (intraperitoneal) in CD2F1 (CDF1) mice. The settings on record: endpoint: median survival time, higher = longer survival. A digest of the protocol:
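Mice carrying the transplanted tumor received test compound or vehicle. Survival was recorded in each group, and the value is the treated-group measurement divided by that of the vehicle-treated control group.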

Setting [1] is: dose: 50.0 mg/kg/injection, schedule: Q01DX005 (ip), vehicle: Klucel (hydroxypropylcellulose) (HPC).
The mark [2] stands for this setting: dose: 100.0 mg/kg/injection, schedule: Q01DX005 (ip), vehicle: Klucel (hydroxypropylcellulose) (HPC).
The mark [3] stands for this setting: dose: 200.0 mg/kg/injection, schedule: Q01DX005 (ip), vehicle: Klucel (hydroxypropylcellulose) (HPC).
The mark [4] stands for this setting: dose: 60.0 mg/kg/injection, schedule: Q01DX005 (ip), vehicle: saline with Tween-80.
Where [5] appears, read: dose: 120.0 mg/kg/injection, schedule: Q01DX005 (ip), vehicle: saline with Tween-80.
Setting [6] is: dose: 240.0 mg/kg/injection, schedule: Q01DX005 (ip), vehicle: saline with Tween-80.
The mark [7] stands for this setting: dose: 100.0 mg/kg/injection, schedule: Q01DX001 (ip), vehicle: Klucel (hydroxypropylcellulose) (HPC).
Setting [8] is: dose: 200.0 mg/kg/injection, schedule: Q01DX001 (ip), vehicle: Klucel (hydroxypropylcellulose) (HPC).
Setting [9] is: dose: 50.0 mg/kg/injection, schedule: Q01DX009 (ip), vehicle: saline with Tween-80.
Where [10] appears, read: dose: 100.0 mg/kg/injection, schedule: Q01DX009 (ip), vehicle: saline with Tween-80.
Where [11] appears, read: dose: 50.0 mg/kg/injection, schedule: Q04DX003 (ip), vehicle: saline with Tween-80.
Where [12] appears, read: dose: 100.0 mg/kg/injection, schedule: Q04DX003 (ip), vehicle: saline with Tween-80.
[13] abbreviates: dose: 200.0 mg/kg/injection, schedule: Q01DX009 (ip), vehicle: saline with Tween-80.
[14] abbreviates: dose: 50.0 mg/kg/injection, schedule: Q01DX009 (ip), vehicle: Klucel (hydroxypropylcellulose) (HPC).
[15] abbreviates: dose: 100.0 mg/kg/injection, schedule: Q01DX009 (ip), vehicle: Klucel (hydroxypropylcellulose) (HPC).
Where [16] appears, read: dose: 200.0 mg/kg/injection, schedule: Q01DX009 (ip), vehicle: Klucel (hydroxypropylcellulose) (HPC).
Setting [17] is: dose: 25.0 mg/kg/injection, schedule: Q01DX009 (ip), vehicle: Klucel (hydroxypropylcellulose) (HPC).

Several values for one entry are separate records, joined by “and”; a condition that tells them apart may be missing. Identical values can stand only once. Toxic doses and inconclusive results are not listed.

Consider `O=C(O)c1cccc2c1C(=O)c1ccccc1-2`, for which the T/C by setting is: under setting [1], 95 % of control; under setting [2], 100 % of control; under setting [3], 105 % of control.

For `O=c1c(C(=Nc2ccccc2)c2ccccc2)c[nH]n1-c1ccccc1`, the T/C is 105 % of control under setting [4], 105 % of control under setting [5] and 105 % of control under setting [6].

With `O=C1c2ccc(Cl)cc2-n2c1nc1ccccc1c2=O`, the T/C was 100 % of control under setting [7]; 93 % of control under setting [8]; 93 % of control (dose: 400.0 mg/kg/injection, schedule: Q01DX001 (ip), vehicle: Klucel (hydroxypropylcellulose) (HPC)).

With `CCCCCCC(=O)CC(SCCO)c1ccc(Cl)c(Cl)c1` (configuration not stated), the T/C (dose: 100.0 mg/kg/injection, schedule: Q04DX003 (ip), vehicle: suspension in saline) is 99 % of control; the T/C (dose: 200.0 mg/kg/injection, schedule: Q04DX003 (ip), vehicle: suspension in saline) is 104 % of control; the T/C (dose: 400.0 mg/kg/injection, schedule: Q04DX003 (ip), vehicle: suspension in saline) was 104 % of control.

In the case of `COCCCn1cnn2c(=O)c3ccccc3nc2c1=O`, the T/C is 103 % of control under setting [4], 99 % of control under setting [5] and 100 % of control under setting [6].

Consider `CNC(=O)OCc1c(COC(=O)NC)c(-c2ccc(Cl)cc2)n(C)c1C`, for which the T/C is, setting by setting: (dose: 6.25 mg/kg/injection, schedule: Q01DX009 (ip), vehicle: distilled water + Tween-80) 155 % of control; (dose: 12.5 mg/kg/injection, schedule: Q01DX009 (ip), vehicle: distilled water + Tween-80) 150 % of control and 153 % of control.

Consider `O=[N+]([O-])c1ccc(-c2noc(-c3cccs3)n2)cc1`, for which the T/C was 95 % of control (dose: 60.0 mg/kg/injection, schedule: Q01DX005 (ip), vehicle: Klucel (hydroxypropylcellulose) (HPC)); 101 % of control (dose: 120.0 mg/kg/injection, schedule: Q01DX005 (ip), vehicle: Klucel (hydroxypropylcellulose) (HPC)); 97 % of control (dose: 240.0 mg/kg/injection, schedule: Q01DX005 (ip), vehicle: Klucel (hydroxypropylcellulose) (HPC)).

For the compound `CC1(C)OCC(C2OC3OC(C)(C)OC3/C2=N/NC(=O)c2cc3cc(OCc4ccccc4)ccc3[nH]2)O1` (configuration not stated), the T/C is, setting by setting: (dose: 6.25 mg/kg/injection, schedule: Q01DX005 (ip), vehicle: saline) 93 % of control; (dose: 12.5 mg/kg/injection, schedule: Q01DX005 (ip), vehicle: saline) 93 % of control; (dose: 25.0 mg/kg/injection, schedule: Q01DX005 (ip), vehicle: saline) 88 % of control; (dose: 200.0 mg/kg/injection, schedule: Q01DX005 (ip), vehicle: saline) 94 % of control.

As for `OCCOCCCl`, the T/C was 96 % of control (dose: 100.0 mg/kg/injection, schedule: Q01DX009 (ip), vehicle: suspension in saline); 109 % of control (dose: 200.0 mg/kg/injection, schedule: Q01DX009 (ip), vehicle: suspension in saline); 110 % of control (dose: 400.0 mg/kg/injection, schedule: Q01DX009 (ip), vehicle: suspension in saline).

On to `CC1=[N+]([O-])[N+]([O-])=C(c2ccccc2)C1=O`, for which the T/C was 107 % of control (dose: 25.0 mg/kg/injection, schedule: Q01DX009 (ip), vehicle: saline with Tween-80); 92 % of control under setting [9]; 107 % of control under setting [10].

`CC1SC(=S)N(c2ccccc2)C1=O` (configuration not stated): the T/C was 104 % of control under setting [9]; 112 % of control under setting [11]; 100 % of control under setting [10]; 108 % of control under setting [12]; 109 % of control under setting [13]; 108 % of control (dose: 200.0 mg/kg/injection, schedule: Q04DX003 (ip), vehicle: saline with Tween-80).

In the case of `Cc1ccc(N=Cc2ccc(C=Nc3ccc(C)cc3C)cc2)c(C)c1`, the T/C is, setting by setting: under setting [14], 92 % of control; under setting [15], 91 % of control; under setting [16], 97 % of control.

On to `Cc1cc(C)cc(N(C2=NCCS2)C2=NCCS2)c1`, for which the T/C is, setting by setting: under setting [17], 106 % of control; under setting [14], 101 % of control; under setting [15], 99 % of control; under setting [16], 104 % of control.

On to `CC(C)c1ccc(C(=O)C2C(=O)C=C(c3ccc(C(C)C)cc3)OC2=O)cc1` (configuration not stated), for which the T/C is 105 % of control (dose: 100.0 mg/kg/injection, schedule: Q01DX001 (ip), vehicle: saline); 108 % of control (dose: 200.0 mg/kg/injection, schedule: Q01DX001 (ip), vehicle: saline); 118 % of control (dose: 400.0 mg/kg/injection, schedule: Q01DX001 (ip), vehicle: saline).

Consider `CS(=O)(=O)C(CCC(=O)C(c1ccccc1)c1ccccc1)C(=O)c1ccccc1` (configuration not stated), for which the T/C under setting [1] was 110 % of control, the T/C under setting [2] is 109 % of control and the T/C under setting [3] is 93 % of control.

Regarding `CC12c3ccccc3C(C)(c3ccccc31)C(C(=O)O)C2Br` (configuration not stated), the T/C is, setting by setting: under setting [1], 100 % of control; under setting [2], 103 % of control; under setting [3], 95 % of control.

With `CC(C)CCCC(C)C1CCC2C3CCC4CC(OP(=O)(O)O)CCC4(C)C3CCC12C` (configuration not stated), the T/C was 99 % of control under setting [9], 96 % of control under setting [10] and 93 % of control under setting [13].

On to `C/C=C1\CN2CCC34c5ccccc5N(C)C35OCC4(C(=O)OC)C1CC25` (configuration not stated), for which the T/C by setting is: (dose: 5.25 mg/kg/injection, schedule: Q01DX005 (ip), vehicle: saline + Tween-80 + alcohol) 100 % of control; (dose: 10.5 mg/kg/injection, schedule: Q01DX005 (ip), vehicle: saline + Tween-80 + alcohol) 92 % of control; (dose: 21.0 mg/kg/injection, schedule: Q01DX005 (ip), vehicle: saline + Tween-80 + alcohol) 98 % of control; (dose: 42.0 mg/kg/injection, schedule: Q01DX005 (ip), vehicle: saline + Tween-80 + alcohol) 96 % of control.

As for `c1ccc(C[N+]23CCC(CC2)CC3)cc1`, the T/C reads like this: (dose: 3.13 mg/kg/injection, schedule: Q04DX003 (ip), vehicle: saline) 95 % of control; (dose: 6.25 mg/kg/injection, schedule: Q04DX003 (ip), vehicle: saline) 95 % of control; (dose: 12.5 mg/kg/injection, schedule: Q04DX003 (ip), vehicle: saline) 100 % of control.

In the case of `COC1c2ccccc2C=CN1C#N` (configuration not stated), the T/C runs as follows: (dose: 50.0 mg/kg/injection, schedule: Q01DX005 (ip), vehicle: distilled water + Tween-80 + alcohol) 105 % of control; (dose: 100.0 mg/kg/injection, schedule: Q01DX005 (ip), vehicle: distilled water + Tween-80 + alcohol) 107 % of control.

With `O=C(c1ccccc1)C(O)O`, the T/C (dose: 25.0 mg/kg/injection, schedule: Q04DX003 (ip), vehicle: saline with Tween-80) is 103 % of control; the T/C under setting [11] is 106 % of control; the T/C under setting [12] was 106 % of control and 109 % of control.

With `COc1ccc(CNC(=O)C2C(=O)C(=O)N(Cc3ccc(OC)c(OC)c3)C2=O)cc1OC` (configuration not stated), the T/C by setting is: under setting [14], 105 % of control; under setting [15], 96 % of control; under setting [16], 103 % of control.

`O=C(Nc1cccc(Cl)c1)OCCCc1ccncc1`: the T/C is 96 % of control under setting [9] and 96 % of control under setting [10].

On to `Cc1nn(CC(=O)O)c(=O)c(C#N)c1-c1ccccc1`, for which the T/C reads like this: (dose: 62.5 mg/kg/injection, schedule: Q04DX002 (ip), vehicle: other) 116 % of control; (dose: 125.0 mg/kg/injection, schedule: Q04DX002 (ip), vehicle: other) 102 % of control; (dose: 250.0 mg/kg/injection, schedule: Q04DX002 (ip), vehicle: other) 115 % of control; (dose: 500.0 mg/kg/injection, schedule: Q04DX002 (ip), vehicle: other) 109 % of control.

For `CCn1cnc2c(=S)nc(N)[nH]c21`, the T/C under setting [17] was 105 % of control.

For `ONc1cnc2ccccc2n1`, the T/C reads like this: under setting [1], 103 % of control; under setting [2], 100 % of control; under setting [3], 100 % of control.

Take `c1ccc(CN2CCC3(CC2)CO3)cc1`: the T/C was 106 % of control under setting [7] and 100 % of control under setting [8].

For the origin of these results see PubChem BioAssay AID330 (DTP/NCI, 2004).
